pKi: −log10 of the molar value.
Biological target: 5-hydroxytryptamine receptor 7 (Homo sapiens, UniProt P34969)
Assay: Displacement of [3H]-5-CT from human 5-HT7b receptor expressed in HEK293 cell membranes incubated for 1 hr by Microbeta Topcount instrument based analysis

Chain of 5-hydroxytryptamine receptor 7 (P34969 whole entry): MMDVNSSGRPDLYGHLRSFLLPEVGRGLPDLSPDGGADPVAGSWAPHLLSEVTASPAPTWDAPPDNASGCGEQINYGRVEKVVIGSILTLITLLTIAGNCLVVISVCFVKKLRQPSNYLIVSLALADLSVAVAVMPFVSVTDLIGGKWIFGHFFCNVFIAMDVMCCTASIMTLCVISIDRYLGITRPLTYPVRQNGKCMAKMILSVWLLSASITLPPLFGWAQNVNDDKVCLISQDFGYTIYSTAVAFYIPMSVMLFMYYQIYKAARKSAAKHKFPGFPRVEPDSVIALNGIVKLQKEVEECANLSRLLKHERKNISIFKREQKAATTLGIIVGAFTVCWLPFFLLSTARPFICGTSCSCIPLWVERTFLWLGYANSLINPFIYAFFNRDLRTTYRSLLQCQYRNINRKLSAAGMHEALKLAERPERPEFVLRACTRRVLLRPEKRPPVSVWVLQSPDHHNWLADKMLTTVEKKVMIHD

SMILES | pKi
COc1ccc(OC)c(COCC(O)CN2CCN(c3ccccc3)CC2)c1 (stereo not drawn) | 5.64
CC(=O)c1ccc(OCC(O)CN2CCN(c3ccccc3)CC2)cc1 (stereo not drawn) | 5.71
CCC(=O)N1c2ccccc2CC1C(=O)NCCCN1CCN(c2ccccc2)CC1 (stereo not drawn) | 5.15
CC(=O)c1ccc(OCC(O)CN2CCN(c3ccc(Cl)cc3)CC2)cc1 (stereo not drawn) | 5.15
CC(=O)c1ccc(OCC(O)CN2CCN(c3ccccc3Cl)CC2)cc1 (stereo not drawn) | 5.33

Now those with a higher pKi, led by results:

pKi | SMILES
6.16 | CCC(=O)N1c2ccccc2CC1C(=O)NCCCN1CCN(c2cccc(Cl)c2)CC1 (stereo not drawn)
5.82 | OC(COc1ccc2c(c1)CCC2)CN1CCN(c2ccc(Cl)cc2)CC1 (stereo not drawn)
6.33 | CC(=O)c1ccc(OCC(O)CN2CCN(c3cccc(Cl)c3)CC2)cc1 (stereo not drawn)
6.44 | CCCc1ccc(OCC(O)CN2CCN(c3cccc(Cl)c3)CC2)cc1 (stereo not drawn)
7.19 | COc1ccc(OC)c(COCC(O)CN2CCN(c3cccc(Cl)c3)CC2)c1 (stereo not drawn)
5.96 | CCCc1ccc(OCC(O)CN2CCN(c3ccccc3)CC2)cc1 (stereo not drawn)
6.55 | OC(COc1ccc2c(c1)CCC2)CN1CCN(c2cccc(Cl)c2)CC1 (stereo not drawn)
6.23 | OC(COc1ccc2c(c1)CCC2)CN1CCN(c2ccccc2)CC1 (stereo not drawn)

— ChEMBL document CHEMBL5576121, “Halogen Bonding Hot Spots as a Constraint in Virtual Screening: A Case Study of 5-HT7R” (J Med Chem, 2024)
